Assay results: ChEMBL document CHEMBL1156804, “Potent inhibitors of furin and furin-like proprotein convertases containing decarboxylated P1 arginine mimetics” (J Med Chem, 2010)
Residues, ends and D or L forms follow the SMILES beside them. *: point of attachment. Agmatine = N=C(N)NCCCCN*; PhAc = O=C(Cc1ccccc1)*

Each compound was assayed against T1, Proprotein convertase subtilisin/kexin type 6 (Homo sapiens, UniProt P29122) (assay: Inhibition of human PACE4 expressed in Drosophila schneider 2 cells by fluorescence assay).
T1 sequence (P29122 whole entry): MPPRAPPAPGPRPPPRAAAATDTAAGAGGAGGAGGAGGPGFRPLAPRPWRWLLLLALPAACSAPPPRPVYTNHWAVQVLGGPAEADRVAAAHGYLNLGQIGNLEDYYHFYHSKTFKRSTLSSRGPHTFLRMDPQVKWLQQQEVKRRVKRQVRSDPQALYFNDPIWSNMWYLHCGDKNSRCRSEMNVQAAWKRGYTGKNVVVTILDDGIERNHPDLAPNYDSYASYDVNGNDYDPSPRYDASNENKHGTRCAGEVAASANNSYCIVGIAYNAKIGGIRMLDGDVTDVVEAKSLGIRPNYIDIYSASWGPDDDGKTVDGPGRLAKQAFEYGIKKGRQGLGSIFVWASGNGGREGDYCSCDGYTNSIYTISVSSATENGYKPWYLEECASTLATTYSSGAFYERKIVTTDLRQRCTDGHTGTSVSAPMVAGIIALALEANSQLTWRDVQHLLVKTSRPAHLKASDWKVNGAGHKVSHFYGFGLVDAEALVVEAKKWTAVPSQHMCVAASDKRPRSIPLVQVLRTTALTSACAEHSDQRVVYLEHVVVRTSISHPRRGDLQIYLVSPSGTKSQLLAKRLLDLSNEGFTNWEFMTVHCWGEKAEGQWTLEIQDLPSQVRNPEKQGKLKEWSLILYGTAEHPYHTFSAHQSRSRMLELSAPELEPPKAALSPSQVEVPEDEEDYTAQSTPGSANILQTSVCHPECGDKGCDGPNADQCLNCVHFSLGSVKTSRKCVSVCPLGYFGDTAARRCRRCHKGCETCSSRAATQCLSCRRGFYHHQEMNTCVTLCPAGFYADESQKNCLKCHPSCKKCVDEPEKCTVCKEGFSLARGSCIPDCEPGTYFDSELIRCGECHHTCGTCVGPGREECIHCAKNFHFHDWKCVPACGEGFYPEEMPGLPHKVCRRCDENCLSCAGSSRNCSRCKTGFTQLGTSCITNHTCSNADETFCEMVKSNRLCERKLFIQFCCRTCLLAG
Format: cell-based

SMILES | Ki
CC(C)[C@H](NC(=O)[C@H](CCCNC(=N)N)NC(=O)Cc1ccccc1)C(=O)N[C@@H](CCCNC(=N)N)C(=O)NCCCCNC(=N)N (PhAc-Arg-Val-Arg-Agmatine) | 42 nM

The compounds below were run against Coagulation factor X (Homo sapiens, UniProt P00742) (assay: Inhibition of factor 10a).
Sequence of Coagulation factor X (P00742 41-179 limits assumed): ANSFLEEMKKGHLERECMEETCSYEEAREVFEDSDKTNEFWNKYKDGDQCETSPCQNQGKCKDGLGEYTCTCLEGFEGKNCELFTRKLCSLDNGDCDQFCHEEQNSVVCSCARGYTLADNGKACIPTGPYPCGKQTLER
Sequence of Coagulation factor X (P00742 235-488 limits assumed): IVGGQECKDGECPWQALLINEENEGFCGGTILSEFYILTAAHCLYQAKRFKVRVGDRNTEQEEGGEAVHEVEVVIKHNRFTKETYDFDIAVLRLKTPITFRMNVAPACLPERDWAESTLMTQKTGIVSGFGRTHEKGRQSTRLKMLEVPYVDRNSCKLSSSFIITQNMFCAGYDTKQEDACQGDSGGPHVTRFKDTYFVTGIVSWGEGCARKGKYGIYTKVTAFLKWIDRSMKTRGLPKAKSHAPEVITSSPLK

SMILES | Ki
CC(C)[C@H](NC(=O)[C@H](CCCNC(=N)N)NC(=O)Cc1ccccc1)C(=O)N[C@@H](CCCNC(=N)N)C(=O)NCCCCNC(=N)N (PhAc-Arg-Val-Arg-Agmatine) | 83000 nM

The compounds below were run against T2, Neuroendocrine convertase 2 (Homo sapiens, UniProt P16519) (assay: Inhibition of human PC2 expressed in Drosophila schneider 2 cells by fluorescence assay).
T2 sequence (P16519 whole entry): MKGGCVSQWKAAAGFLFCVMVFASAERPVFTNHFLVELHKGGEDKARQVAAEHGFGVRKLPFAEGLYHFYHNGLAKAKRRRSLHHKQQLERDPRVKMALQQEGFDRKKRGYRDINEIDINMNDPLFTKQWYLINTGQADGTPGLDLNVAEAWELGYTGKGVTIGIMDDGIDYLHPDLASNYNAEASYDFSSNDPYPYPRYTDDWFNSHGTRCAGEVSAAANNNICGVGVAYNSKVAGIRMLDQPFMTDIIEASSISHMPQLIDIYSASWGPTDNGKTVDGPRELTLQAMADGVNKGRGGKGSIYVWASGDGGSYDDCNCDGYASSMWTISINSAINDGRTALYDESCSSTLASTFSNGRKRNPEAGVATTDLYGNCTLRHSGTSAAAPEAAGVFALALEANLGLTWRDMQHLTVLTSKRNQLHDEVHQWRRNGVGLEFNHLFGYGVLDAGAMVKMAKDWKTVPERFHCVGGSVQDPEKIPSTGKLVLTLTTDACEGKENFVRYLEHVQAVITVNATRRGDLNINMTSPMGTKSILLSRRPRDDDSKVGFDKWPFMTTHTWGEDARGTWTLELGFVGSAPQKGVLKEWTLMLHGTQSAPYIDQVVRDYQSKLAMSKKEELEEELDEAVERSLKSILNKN
Format: cell-based

SMILES | Ki
CC(C)[C@H](NC(=O)[C@H](CCCNC(=N)N)NC(=O)Cc1ccccc1)C(=O)N[C@@H](CCCNC(=N)N)C(=O)NCCCCNC(=N)N (PhAc-Arg-Val-Arg-Agmatine) | > 10000 nM

What follows are compounds tested against Plasminogen (Homo sapiens, UniProt P00747) (assay: Inhibition of plasmin).
Sequence of Plasminogen (P00747 97-580 limits assumed): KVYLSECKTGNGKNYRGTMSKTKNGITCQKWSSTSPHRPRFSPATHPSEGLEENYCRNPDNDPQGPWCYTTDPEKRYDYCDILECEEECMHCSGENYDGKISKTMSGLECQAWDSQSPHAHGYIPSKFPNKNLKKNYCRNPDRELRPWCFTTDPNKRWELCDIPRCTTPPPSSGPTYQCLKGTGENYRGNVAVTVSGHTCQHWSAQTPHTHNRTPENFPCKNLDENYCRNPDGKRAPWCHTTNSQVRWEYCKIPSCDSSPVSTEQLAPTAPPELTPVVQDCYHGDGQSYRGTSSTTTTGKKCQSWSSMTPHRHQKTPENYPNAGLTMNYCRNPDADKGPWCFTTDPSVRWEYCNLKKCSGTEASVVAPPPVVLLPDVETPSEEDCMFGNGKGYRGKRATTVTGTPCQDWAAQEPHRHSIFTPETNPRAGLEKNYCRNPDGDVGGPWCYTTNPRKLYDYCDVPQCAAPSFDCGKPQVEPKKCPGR
Sequence of Plasminogen (P00747 581-810 limits assumed): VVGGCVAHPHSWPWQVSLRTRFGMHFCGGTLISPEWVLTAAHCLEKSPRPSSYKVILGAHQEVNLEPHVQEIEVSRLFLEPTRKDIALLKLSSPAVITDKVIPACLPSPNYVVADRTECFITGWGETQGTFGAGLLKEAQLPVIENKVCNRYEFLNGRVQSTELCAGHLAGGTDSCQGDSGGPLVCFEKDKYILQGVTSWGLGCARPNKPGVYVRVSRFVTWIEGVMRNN

SMILES | Ki
CC(C)[C@H](NC(=O)[C@H](CCCNC(=N)N)NC(=O)Cc1ccccc1)C(=O)N[C@@H](CCCNC(=N)N)C(=O)NCCCCNC(=N)N (PhAc-Arg-Val-Arg-Agmatine) | 97000 nM

Each compound was assayed against T3, Neuroendocrine convertase 1 (Homo sapiens, UniProt P29120) (assay: Inhibition of human PC1/3 expressed in Drosophila schneider 2 cells by fluorescence assay).
T3 sequence (P29120 whole entry): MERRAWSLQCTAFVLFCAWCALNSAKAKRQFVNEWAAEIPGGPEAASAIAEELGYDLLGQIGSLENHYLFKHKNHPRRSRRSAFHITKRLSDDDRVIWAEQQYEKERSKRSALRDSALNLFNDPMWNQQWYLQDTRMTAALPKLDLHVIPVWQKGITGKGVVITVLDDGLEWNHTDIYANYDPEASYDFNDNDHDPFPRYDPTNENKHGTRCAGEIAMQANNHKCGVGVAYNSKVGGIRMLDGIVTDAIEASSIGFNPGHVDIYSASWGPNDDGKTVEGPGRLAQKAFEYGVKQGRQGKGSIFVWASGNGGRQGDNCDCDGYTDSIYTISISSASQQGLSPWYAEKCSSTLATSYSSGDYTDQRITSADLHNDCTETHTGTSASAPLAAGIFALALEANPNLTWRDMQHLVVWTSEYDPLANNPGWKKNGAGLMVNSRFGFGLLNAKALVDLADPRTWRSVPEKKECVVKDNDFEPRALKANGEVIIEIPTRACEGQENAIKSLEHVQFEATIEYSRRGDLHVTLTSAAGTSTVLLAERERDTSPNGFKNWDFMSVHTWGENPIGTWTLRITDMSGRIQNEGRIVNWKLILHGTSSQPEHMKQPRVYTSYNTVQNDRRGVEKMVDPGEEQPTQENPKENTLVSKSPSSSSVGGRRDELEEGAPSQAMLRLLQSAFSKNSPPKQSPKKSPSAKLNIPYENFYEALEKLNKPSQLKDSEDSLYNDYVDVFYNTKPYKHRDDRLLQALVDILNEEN
Format: cell-based

SMILES | Ki
CC(C)[C@H](NC(=O)[C@H](CCCNC(=N)N)NC(=O)Cc1ccccc1)C(=O)N[C@@H](CCCNC(=N)N)C(=O)NCCCCNC(=N)N (PhAc-Arg-Val-Arg-Agmatine) | 53 nM

These compounds were tested against T4, Proprotein convertase subtilisin/kexin type 7 (Homo sapiens, UniProt Q16549) (assay: Inhibition of human PC7 expressed in Drosophila schneider 2 cells by fluorescence assay).
T4 sequence (Q16549 whole entry): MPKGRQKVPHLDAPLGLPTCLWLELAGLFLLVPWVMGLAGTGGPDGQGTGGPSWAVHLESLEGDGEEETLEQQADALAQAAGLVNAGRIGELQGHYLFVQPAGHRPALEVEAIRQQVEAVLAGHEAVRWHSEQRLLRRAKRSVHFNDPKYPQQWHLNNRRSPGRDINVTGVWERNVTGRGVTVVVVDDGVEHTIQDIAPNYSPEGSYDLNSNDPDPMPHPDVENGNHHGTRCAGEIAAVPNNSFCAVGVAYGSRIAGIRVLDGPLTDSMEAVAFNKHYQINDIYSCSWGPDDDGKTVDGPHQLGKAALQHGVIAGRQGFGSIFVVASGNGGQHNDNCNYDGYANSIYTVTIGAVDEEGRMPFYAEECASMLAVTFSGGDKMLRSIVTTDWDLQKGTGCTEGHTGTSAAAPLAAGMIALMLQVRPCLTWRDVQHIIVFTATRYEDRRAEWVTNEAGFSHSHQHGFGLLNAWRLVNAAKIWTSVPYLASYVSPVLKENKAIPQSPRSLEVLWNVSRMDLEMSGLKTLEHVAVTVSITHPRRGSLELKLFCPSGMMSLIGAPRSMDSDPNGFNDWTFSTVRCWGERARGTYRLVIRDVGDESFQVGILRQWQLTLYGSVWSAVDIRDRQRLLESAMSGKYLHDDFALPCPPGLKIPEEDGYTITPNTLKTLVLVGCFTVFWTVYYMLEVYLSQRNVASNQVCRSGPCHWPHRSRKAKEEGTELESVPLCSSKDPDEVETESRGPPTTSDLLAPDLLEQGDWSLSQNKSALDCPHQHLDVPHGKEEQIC
Format: cell-based

SMILES | Ki
CC(C)[C@H](NC(=O)[C@H](CCCNC(=N)N)NC(=O)Cc1ccccc1)C(=O)N[C@@H](CCCNC(=N)N)C(=O)NCCCCNC(=N)N (PhAc-Arg-Val-Arg-Agmatine) | > 10000 nM

What follows are compounds tested against Proprotein convertase subtilisin/kexin type 5 (Homo sapiens, UniProt Q92824) (assay: Inhibition of human PC5/6 expressed in Drosophila schneider 2 cells by fluorescence assay).
Sequence of Proprotein convertase subtilisin/kexin type 5 (Q92824 whole entry): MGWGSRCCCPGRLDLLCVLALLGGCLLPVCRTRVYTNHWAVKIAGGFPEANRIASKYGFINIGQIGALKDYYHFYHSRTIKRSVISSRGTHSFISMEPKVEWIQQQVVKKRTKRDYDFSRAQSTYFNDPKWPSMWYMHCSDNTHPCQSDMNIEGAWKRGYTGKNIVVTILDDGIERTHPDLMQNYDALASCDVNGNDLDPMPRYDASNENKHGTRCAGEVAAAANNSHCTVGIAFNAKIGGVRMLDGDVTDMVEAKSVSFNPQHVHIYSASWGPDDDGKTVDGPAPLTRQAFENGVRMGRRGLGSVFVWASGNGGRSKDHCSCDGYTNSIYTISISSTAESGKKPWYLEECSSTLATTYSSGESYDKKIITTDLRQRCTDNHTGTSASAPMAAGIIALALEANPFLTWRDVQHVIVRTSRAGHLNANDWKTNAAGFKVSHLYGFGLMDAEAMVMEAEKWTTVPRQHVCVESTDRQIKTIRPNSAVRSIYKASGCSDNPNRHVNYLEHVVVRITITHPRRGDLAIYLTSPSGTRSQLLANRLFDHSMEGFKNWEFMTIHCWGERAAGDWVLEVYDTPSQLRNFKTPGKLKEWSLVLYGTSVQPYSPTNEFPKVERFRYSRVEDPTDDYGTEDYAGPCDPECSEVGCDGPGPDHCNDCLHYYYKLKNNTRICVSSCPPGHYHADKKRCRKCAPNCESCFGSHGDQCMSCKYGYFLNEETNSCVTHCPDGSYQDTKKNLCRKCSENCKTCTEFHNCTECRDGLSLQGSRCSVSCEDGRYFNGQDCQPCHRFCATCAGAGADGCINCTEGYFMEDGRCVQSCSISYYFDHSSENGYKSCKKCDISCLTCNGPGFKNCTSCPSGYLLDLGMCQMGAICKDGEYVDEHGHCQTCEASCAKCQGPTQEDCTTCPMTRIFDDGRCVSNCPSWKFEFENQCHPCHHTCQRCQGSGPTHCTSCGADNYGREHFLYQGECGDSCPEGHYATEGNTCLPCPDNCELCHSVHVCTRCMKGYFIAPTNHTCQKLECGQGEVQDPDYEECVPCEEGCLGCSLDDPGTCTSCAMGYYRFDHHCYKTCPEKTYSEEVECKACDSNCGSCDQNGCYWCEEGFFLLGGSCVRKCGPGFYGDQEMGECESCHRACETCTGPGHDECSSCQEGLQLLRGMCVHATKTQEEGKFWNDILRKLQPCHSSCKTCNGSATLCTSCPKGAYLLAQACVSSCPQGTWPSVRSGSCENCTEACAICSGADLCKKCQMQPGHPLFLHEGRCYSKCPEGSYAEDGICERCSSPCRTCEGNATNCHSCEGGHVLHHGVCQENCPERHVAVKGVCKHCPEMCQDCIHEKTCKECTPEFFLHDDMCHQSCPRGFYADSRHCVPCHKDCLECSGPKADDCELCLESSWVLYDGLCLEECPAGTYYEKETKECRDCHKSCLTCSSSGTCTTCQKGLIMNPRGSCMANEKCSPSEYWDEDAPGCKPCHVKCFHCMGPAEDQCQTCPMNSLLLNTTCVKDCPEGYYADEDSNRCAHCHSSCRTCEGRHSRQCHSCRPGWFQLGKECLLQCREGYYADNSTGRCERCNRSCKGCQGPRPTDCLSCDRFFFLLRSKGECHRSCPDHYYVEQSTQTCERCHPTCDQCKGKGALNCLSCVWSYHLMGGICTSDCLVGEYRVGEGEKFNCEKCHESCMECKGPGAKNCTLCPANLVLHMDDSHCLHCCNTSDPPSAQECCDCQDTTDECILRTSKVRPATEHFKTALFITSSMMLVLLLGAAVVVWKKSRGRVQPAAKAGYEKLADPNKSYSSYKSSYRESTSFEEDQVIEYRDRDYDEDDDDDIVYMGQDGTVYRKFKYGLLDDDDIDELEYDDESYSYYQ
Format: cell-based

SMILES | Ki
CC(C)[C@H](NC(=O)[C@H](CCCNC(=N)N)NC(=O)Cc1ccccc1)C(=O)N[C@@H](CCCNC(=N)N)C(=O)NCCCCNC(=N)N (PhAc-Arg-Val-Arg-Agmatine) | 85 nM

The compounds below were run against Prothrombin (Homo sapiens, UniProt P00734) (assay: Inhibition of thrombin).

SMILES | Ki
CC(C)[C@H](NC(=O)[C@H](CCCNC(=N)N)NC(=O)Cc1ccccc1)C(=O)N[C@@H](CCCNC(=N)N)C(=O)NCCCCNC(=N)N (PhAc-Arg-Val-Arg-Agmatine) | 102000 nM

These compounds were tested against Furin (Homo sapiens, UniProt P09958).
Sequence of Furin (P09958 whole entry): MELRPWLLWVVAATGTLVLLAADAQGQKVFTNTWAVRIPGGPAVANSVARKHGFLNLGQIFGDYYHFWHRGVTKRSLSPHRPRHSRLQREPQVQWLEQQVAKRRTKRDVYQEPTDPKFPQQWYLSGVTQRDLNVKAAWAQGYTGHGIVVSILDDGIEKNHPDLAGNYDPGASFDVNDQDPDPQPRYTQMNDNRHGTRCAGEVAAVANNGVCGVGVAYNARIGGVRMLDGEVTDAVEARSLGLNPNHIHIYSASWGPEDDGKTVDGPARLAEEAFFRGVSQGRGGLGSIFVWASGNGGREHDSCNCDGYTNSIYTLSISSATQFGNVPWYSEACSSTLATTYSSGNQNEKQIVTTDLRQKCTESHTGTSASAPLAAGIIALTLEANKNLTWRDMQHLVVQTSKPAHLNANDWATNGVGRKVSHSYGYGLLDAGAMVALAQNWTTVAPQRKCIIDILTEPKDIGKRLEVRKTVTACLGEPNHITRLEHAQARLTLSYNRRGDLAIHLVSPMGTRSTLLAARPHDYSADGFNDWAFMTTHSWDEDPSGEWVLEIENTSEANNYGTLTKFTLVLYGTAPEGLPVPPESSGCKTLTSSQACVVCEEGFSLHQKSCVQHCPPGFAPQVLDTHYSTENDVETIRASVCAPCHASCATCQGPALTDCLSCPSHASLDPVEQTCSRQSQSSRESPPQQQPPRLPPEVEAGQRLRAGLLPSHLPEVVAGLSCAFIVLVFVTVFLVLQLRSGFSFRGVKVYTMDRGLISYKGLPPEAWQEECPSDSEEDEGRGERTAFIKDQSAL

SMILES | Ki
CCCCCCCCCC(=O)N[C@@H](CCCN=C(N)N)C(=O)N[C@H](C(=O)N[C@@H](CCCCN)C(=O)NCc1ccc(C(=N)N)cc1)C(C)C | 3.3 nM
CC(C)[C@H](NC(=O)[C@H](CCCN=C(N)N)NC(=O)Cc1ccccc1)C(=O)N[C@@H](CCCN=C(N)N)C(=O)NCc1cccc(CN=C(N)N)c1 | 2730 nM
CC(C)[C@H](NC(=O)[C@H](CCCN=C(N)N)NC(=O)Cc1ccccc1)C(=O)N[C@@H](CCCN=C(N)N)C(=O)NCc1ccc(CN=C(N)N)cc1 | 1430 nM
CC(C)[C@H](NC(=O)[C@H](CCCNC(=N)N)NC(=O)Cc1ccccc1)C(=O)N[C@@H](CCCNC(=N)N)C(=O)NCCCCNC(=N)N (PhAc-Arg-Val-Arg-Agmatine) | 78 nM
